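Cultured in 96-well plates, cells were exposed to test compound for 48 hours across five concentrations. GI50: concentration for 50% inhibition of growth. At the TGI there is no net growth.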
What was measured:
Experiment in all cases: growth of human tumour cells (NCI), 48 h
NCI-H23 lung = system: NCI-H23 lung
NCI-H460 lung = system: NCI-H460 lung
NCI-H522 lung = system: NCI-H522 lung
NCI/ADR-RES ovarian = system: NCI/ADR-RES ovarian
OVCAR-3 ovarian = system: OVCAR-3 ovarian
OVCAR-4 ovarian = system: OVCAR-4 ovarian
OVCAR-5 ovarian = system: OVCAR-5 ovarian
OVCAR-8 ovarian = system: OVCAR-8 ovarian
PC-3 prostate = system: PC-3 prostate
RPMI-8226 leukemia = system: RPMI-8226 leukemia
RXF 393 renal = system: RXF 393 renal
SF-268 CNS = system: SF-268 CNS
SF-295 CNS = system: SF-295 CNS
SF-539 CNS = system: SF-539 CNS
SK-MEL-2 melanoma = system: SK-MEL-2 melanoma
SK-MEL-28 melanoma = system: SK-MEL-28 melanoma
SK-MEL-5 melanoma = system: SK-MEL-5 melanoma
SK-OV-3 ovarian = system: SK-OV-3 ovarian
SN12C renal = system: SN12C renal
SNB-19 CNS = system: SNB-19 CNS
SNB-75 CNS = system: SNB-75 CNS
SR leukemia = system: SR leukemia
SW-620 colon = system: SW-620 colon
T-47D breast = system: T-47D breast
TK-10 renal = system: TK-10 renal
U251 CNS = system: U251 CNS
UACC-257 melanoma = system: UACC-257 melanoma
UACC-62 melanoma = system: UACC-62 melanoma
UO-31 renal = system: UO-31 renal

**Q.** Which GI50 (NCI-H23 lung) does the source give for `CN1CCN(Cc2ccc(NC(=O)c3cncc(C#Cc4cnc5[nH]ncc5c4)c3)cc2C(F)(F)F)CC1` here?
**A.** 2.28 µM

**Q.** What about the TGI (NCI-H23 lung) of the same molecule?
**A.** 16.6 µM

**Q.** And the GI50 (NCI-H460 lung)?
**A.** 1.3 µM

**Q.** And the TGI (NCI-H460 lung)?
**A.** 13.9 µM

**Q.** And the GI50 (NCI-H522 lung)?
**A.** 1 µM

**Q.** What about the TGI (NCI-H522 lung) of the same molecule?
**A.** 11.3 µM

**Q.** And the GI50 (NCI/ADR-RES ovarian)?
**A.** 7.07 µM

**Q.** What about the TGI (NCI/ADR-RES ovarian) of the same molecule?
**A.** 42.1 µM

**Q.** And the GI50 (OVCAR-3 ovarian)?
**A.** 3.04 µM

**Q.** And the TGI (OVCAR-3 ovarian)?
**A.** 16.5 µM

**Q.** And the GI50 (OVCAR-4 ovarian)?
**A.** 3.03 µM

**Q.** What about the TGI (OVCAR-4 ovarian) of the same molecule?
**A.** 25.8 µM

**Q.** And the GI50 (OVCAR-5 ovarian)?
**A.** 3.24 µM

**Q.** What about the TGI (OVCAR-5 ovarian) of the same molecule?
**A.** 17.4 µM

**Q.** What about the GI50 (OVCAR-8 ovarian) of the same molecule?
**A.** 4.26 µM

**Q.** What about the TGI (OVCAR-8 ovarian) of the same molecule?
**A.** 20.3 µM

**Q.** And the GI50 (PC-3 prostate)?
**A.** 3.7 µM

**Q.** What about the TGI (PC-3 prostate) of the same molecule?
**A.** 60.9 µM

**Q.** What about the GI50 (RPMI-8226 leukemia) of the same molecule?
**A.** 4.03 µM

**Q.** What about the TGI (RPMI-8226 leukemia) of the same molecule?
**A.** 50.3 µM

**Q.** What about the GI50 (RXF 393 renal) of the same molecule?
**A.** 0.612 µM

**Q.** And the TGI (RXF 393 renal)?
**A.** 5.68 µM

**Q.** And the GI50 (SF-268 CNS)?
**A.** 2.54 µM

**Q.** And the TGI (SF-268 CNS)?
**A.** 16.8 µM

**Q.** And the GI50 (SF-295 CNS)?
**A.** 3.13 µM

**Q.** What about the TGI (SF-295 CNS) of the same molecule?
**A.** 16.3 µM

**Q.** What about the GI50 (SF-539 CNS) of the same molecule?
**A.** 0.925 µM

**Q.** What about the TGI (SF-539 CNS) of the same molecule?
**A.** 4.99 µM

**Q.** What about the GI50 (SK-MEL-2 melanoma) of the same molecule?
**A.** 0.535 µM

**Q.** And the TGI (SK-MEL-2 melanoma)?
**A.** 2.78 µM

**Q.** What about the GI50 (SK-MEL-28 melanoma) of the same molecule?
**A.** 1.7 µM

**Q.** And the TGI (SK-MEL-28 melanoma)?
**A.** 8.66 µM

**Q.** What about the GI50 (SK-MEL-5 melanoma) of the same molecule?
**A.** 2.71 µM

**Q.** What about the TGI (SK-MEL-5 melanoma) of the same molecule?
**A.** 12.6 µM

**Q.** What about the GI50 (SK-OV-3 ovarian) of the same molecule?
**A.** 1.79 µM

**Q.** What about the TGI (SK-OV-3 ovarian) of the same molecule?
**A.** 13.5 µM

**Q.** What about the GI50 (SN12C renal) of the same molecule?
**A.** 1.82 µM

**Q.** What about the TGI (SN12C renal) of the same molecule?
**A.** 11.4 µM

**Q.** What about the GI50 (SNB-19 CNS) of the same molecule?
**A.** 8.72 µM

**Q.** What about the TGI (SNB-19 CNS) of the same molecule?
**A.** 21.4 µM

**Q.** And the GI50 (SNB-75 CNS)?
**A.** 3.4 µM

**Q.** What about the TGI (SNB-75 CNS) of the same molecule?
**A.** 18.3 µM

**Q.** And the GI50 (SR leukemia)?
**A.** 0.851 µM

**Q.** What about the TGI (SR leukemia) of the same molecule?
**A.** 11.4 µM

**Q.** What about the GI50 (SW-620 colon) of the same molecule?
**A.** 1.65 µM

**Q.** What about the TGI (SW-620 colon) of the same molecule?
**A.** 16.2 µM

**Q.** What about the GI50 (T-47D breast) of the same molecule?
**A.** 3.2 µM

**Q.** And the TGI (T-47D breast)?
**A.** 23 µM

**Q.** And the GI50 (TK-10 renal)?
**A.** 3.45 µM

**Q.** What about the TGI (TK-10 renal) of the same molecule?
**A.** 17.9 µM

**Q.** And the GI50 (U251 CNS)?
**A.** 4.36 µM

**Q.** What about the TGI (U251 CNS) of the same molecule?
**A.** 25.4 µM

**Q.** And the GI50 (UACC-257 melanoma)?
**A.** 2.86 µM

**Q.** And the TGI (UACC-257 melanoma)?
**A.** 17 µM

**Q.** What about the GI50 (UACC-62 melanoma) of the same molecule?
**A.** 1.09 µM

**Q.** What about the TGI (UACC-62 melanoma) of the same molecule?
**A.** 5.56 µM

**Q.** What about the GI50 (UO-31 renal) of the same molecule?
**A.** 3.23 µM

**Q.** And the TGI (UO-31 renal)?
**A.** 10.8 µM

— PubChem BioAssay (NCI)
